The values that follow come from PMC546160 (Nucleic Acids Research, 2005).

In assay [1] the target is T1, HhaI methyltransferase (M.HhaI) (Haemophilus parahaemolyticus, UniProt P05102).
T1 sequence (P05102 1-327): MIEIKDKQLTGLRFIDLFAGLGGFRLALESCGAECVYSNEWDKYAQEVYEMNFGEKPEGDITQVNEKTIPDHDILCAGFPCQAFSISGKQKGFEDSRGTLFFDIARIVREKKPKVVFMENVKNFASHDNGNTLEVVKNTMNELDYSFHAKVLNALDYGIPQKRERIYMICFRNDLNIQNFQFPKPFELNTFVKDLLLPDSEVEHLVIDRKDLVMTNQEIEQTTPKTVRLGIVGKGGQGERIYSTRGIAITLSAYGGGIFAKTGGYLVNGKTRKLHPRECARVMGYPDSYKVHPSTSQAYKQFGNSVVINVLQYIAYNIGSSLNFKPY
The assay can be described thus: biochemical.

Assay [2] concerns the target HhaI methyltransferase (M.HhaI) (Haemophilus parahaemolyticus, UniProt P05102, W41I). The assay is described as follows: biochemical.

Take `C[S+](CC[C@H](N)C(=O)O)C[C@H]1O[C@@H](n2cnc3c(N)ncnc32)[C@H](O)[C@@H]1O` (some centres unmarked) [AdoMet]: the Kd in assay [1] amounted to 4.4 µM; in assay [2] it was 14 µM.
